Assay results: patent US20120128732A1, “COMBINATIONS AND MODES OF ADMINISTRATION OF THERAPEUTIC AGENTS AND COMBINATION THERAPY” (priority 2008, published 2012)

Assays:
[1] = test system: MDA-MB-231 breast tumor xenografts; assay: Survival signals in MDA-MB-231 breast tumor xenografts after Abraxane (Western blotting, immunohistochemistry); format: in vivo, mice
Experimental: […] Tumor lysates were analyzed for VEGF expression and pro-survival signals (p42 & p44 kinase, p-NF-κB p50, p-Akt, bcl-2) using Western blotting. Expression of bcl-2 was further analyzed by immunohistochemistry.

[2] = test system: imatinib-resistant gastrointestinal stromal tumor; conditions: addition of perifosine to imatinib, patients; cited from earlier work
[3] = test system: second or third-line metastatic colon cancer; conditions: perifosine in combination with capecitabine, patients with advanced; cited from earlier work
[4] = test system: metastatic or advanced renal cell carcinoma; conditions: progressing after prior therapy with a VEGF receptor inhibitor; cited from earlier work

With `CC(=O)O[C@H]1C(=O)[C@@]2(C)[C@H]([C@H](OC(=O)c3ccccc3)[C@]3(O)C[C@H](OC(=O)[C@H](O)[C@@H](NC(=O)c4ccccc4)c4ccccc4)C(C)=C1C3(C)C)[C@]1(OC(C)=O)CO[C@@H]1C[C@@H]2O` [paclitaxel] the “bcl-2 expression in tumors” value ([1]; surviving MDA-MB-231 tumors, SCID mice, Abraxane 10 to 30 mg/kg IV qdx5, Western blotting and immunohistochemistry) was “Significant increases” and the “inflammatory cytokines in tumors” value ([1]; tumors extracted immediately after therapy, Western blotting and immunohistochemistry) was “Significant increases”.

In the case of `CCCCCCCCCCCCCCCCCCOP(=O)([O-])OC1CC[N+](C)(C)CC1` [perifosine], the “activity in imatinib-refractory gastrointestinal stromal tumor” value [2] is listed as “minimal activity”, the “median time to progression over capecitabine alone” value [3] is listed as “more than doubled” and the “clinical outcome in renal cell carcinoma” value [4] is listed as “clinical benefits”.
